System: LPS-induced circulating TNF
Assay: Circulating TNF response to LPS in galactosamine-sensitized mice
Format: in vivo
Procedure: With a challenge dose of 10 μg or E. coli 0111:B4 LPS, 100% of control mice (i.e., no cationic peptide) were killed. […] Consistent with its improved ability to bind LPS, CEMA was more protective resulting in 60%, 75%, and 78% survival when given to mice at doses of 50 μg, 100 μg, and 200 μg respectively. […] Thirty minutes later, the mice were sacrificed and the blood was taken and centrifuged to separate the serum which was used in the cell cytotoxic L929 assay. […] Such suppression of TNF levels in the animals injected with Dgal, CEMA, and LPS was maintained for up to 2 hours.
TNF was measured in cell culture supernatants and mouse serum on the basis of cytoxicity for L929 fibroblast cell. […] TNF activity was expressed in units as the reciprocal of the dilution of TNF that caused 50% cytotoxicity of L929 cells, as computed using the ELISA+program (Meddata, Inc., New York, N.Y.). In our hands one unit of TNF corresponded to 62.5 pg/ml of recombinant murine TNF (Genzyme Corp.).
Mice are naturally resistant to LPS. […] Endotoxic shock was induced by intraperitoneal injection of 10 or 20 μg of E. coli 0111:B4 LPS in phosphate-buffered saline (PBS), pH 7.2 into galactosamine-sensitized 8-10 week old female CD-1 mice (Galanos, C., supra; Freudenberg, M. A., Inf. Immun., 51:891, 1986). In experiments involving peptides, 50-200 μg in 100 μl sterile water injected at separate intraperitoneal sites immediately before or after LPS injection. In survival experiments, survival was monitored at 24 to 48 hours post injection. In experiments measuring TNF, blood was withdrawn by cardiac puncture at timed intervals up to 8 hours after the injections and allowed to clot prior to measurement of TNF in the serum.
To examine if the peptides were exerting their effects in animals by suppressing TNF induction, TNF was followed in response to injection of 10 μg of E. Coli 0111:B4 into galactosamine treated CD-1 mice. […] At the time points shown, blood was taken and TNF measured in the L929 cytotoxicity assay. […]

CC[C@H](C)[C@H](NC(=O)CNC(=O)[C@@H](NC(=O)[C@H](CCCCN)NC(=O)[C@H](CCCCN)NC(=O)[C@H](Cc1ccccc1)NC(=O)[C@H](CC(C)C)NC(=O)[C@H](CCCCN)NC(=O)[C@H](Cc1c[nH]c2ccccc12)NC(=O)[C@@H](N)CCCCN)[C@@H](C)CC)C(=O)NCC(=O)N[C@@H](C)C(=O)N[C@H](C(=O)N[C@@H](CC(C)C)C(=O)N[C@@H](CCCCN)C(=O)N[C@H](C(=O)N[C@@H](CC(C)C)C(=O)N[C@H](C(=O)N[C@H](C(=O)NCC(=O)N[C@@H](CC(C)C)C(=O)N1CCC[C@H]1C(=O)N[C@@H](C)C(=O)N[C@@H](CC(C)C)C(=O)N[C@@H](CCCCN)C(=O)N[C@@H](CC(C)C)C(=O)N[C@H](C(=O)N[C@@H](CCCCN)C(=O)O)[C@@H](C)O)[C@@H](C)O)[C@@H](C)O)C(C)C)C(C)C [CEMA]
reduction of serum TNF levels (200 μg CEMA injected immediately after 10 μg E. coli 0111:B4 LPS): 89%
blood levels of TNF (200 μg CEMA with 10 μg LPS and Dgal, at 30 minutes): 11-16 U/ml
duration of suppression of TNF levels (animals injected with Dgal, CEMA, and LPS): up to 2 hours

Reference: patent US5688767A, “Treatment of endotoxin-associated disorders with cationic peptides” (priority 1996, dated 1997)
